Series [1] deals with TyrRS. The class given is cell-based, rat. Particulars: for levels of neuronal TyrRS: neurotoxic agent alone, after 4 hr of treatment; for neuronal TyrRS levels: picomolar concentration (5-50 pM). The method, then: (§1) Primary cortical neurons were dissected from E18 Sprague Dawley rat pups in Hibernate E (BrainBits®) and dissociated using the Neural Tissue Dissociation kit (Miltenyi Biotec). Minced cortices were incubated in a pre-warmed enzyme mix at 37° C. for 15 min; tissues were then triturated and strained using a 40 μm cell strainer. After washing and centrifugation, neurons were seeded in 50 μg/ml poly-D-Lysine (Sigma-Aldrich) coated tissue culture plates. NBActive-1 medium (BrainBits®) supplemented with 100 U/ml of Penicillin-Streptomycin (Life Technologies™), 2 mM L-Glutamine (Life Technologies™), and 1×N21 supplement (R&D Systems™) was used as culture medium. For preparation of culture medium containing reduced tyrosine, the components of NBActive-1 medium were altered to combined with a reduced concentration of tyrosine, as mentioned in Table 1, and was supplemented with 100 U/ml of Penicillin-Streptomycin (Life Technologies™), 2 mM L-Glutamine (Life Technologies™), and 1×N21 supplement (R&D Systems™) to obtained culture medium with reduced tyrosine. Control (non-targeting), TyrRS, and PARP1 siRNAs were obtained from Invitrogen™ (#AM4635, s443, and s130207, respectively). Rat cortical neurons at 5 DIV were transfected with 75 nM control or TyrRS siRNA using DharmaFECT™ 3 Transfection Reagent. A second transfection was done two days later using 75 nM of TyrRS siRNA, followed by cell collection or assays after another 48 hr. For PARP1 siRNA, neurons at 7 DIV were transfected with 75 nM siRNA for both control and PARP1 siRNA.
(§2) Cultured neurons (DIV 9-10) were washed once with cold 1×PBS and lysed in cell lysis buffer (20 mM Tris-HCl (pH 7.5), 150 mM NaCl, 1 mM Na2EDTA, 1 mM EGTA, 1% Triton™, 2.5 mM sodium pyrophosphate, 1 mM beta-glycerophosphate, 1 mM Na3VO4, 1 μg/ml leupeptin supplemented with protease inhibitor). The lysates were centrifuged at 10,000 RPM for 15 mins at 4° C. to separate the chromatin-bound and soluble fractions. Lysates were quantified using Bio-Rad™ Protein Assay and equal amounts of protein were loaded onto a 4 to 12% gradient gel (Invitrogen™ NuPAGE™). Protein was transferred from the gel to 0.2 μm NC membranes at 25 V for 10 mins using transfer stacks (iBlot™ 2-Invitrogen™) and blocked with 5% non-fat milk in TBST (10 mM Tris-HCl pH 8.0, 150 mM NaCl, 0.01% Tween-20) for 1 hr before application of primary antibodies. Primary and secondary antibodies were incubated overnight at 4° C. and for 1 hr at room temperature, respectively. Immobilon® ECL Ultra Western HRP Substrate (WBULS0500, Millipore™) and a luminescent image analyzer (ChemiDoc™ Imaging System, Bio-Rad™) were used to detect proteins. Quantification of western blots was done using ImageJ (Version 1.53c).
Cultured cortical neurons (DIV 9-10) were fixed in 4% formaldehyde for 15 min, followed by permeabilization and blocking for 30 min in 5% BSA (PBS) and 0.1% Tween™ 20 at room temperature. Incubation with primary antibodies was done at 4° C. overnight. The names and dilutions of the primary antibodies used for IF are described in Table 3. Secondary antibodies were incubated for 1 hr at room temperature. Secondary antibodies used were Alexa Fluor® 647 (anti-chicken), Alexa Fluor® 555 (anti-mouse), Alexa Fluor® 488 (anti-rabbit) from Invitrogen™ at 1:1000 dilution. Coverslips were then mounted using DAPI (4′,6-diamidino-2-phenylindole)-supplemented mounting medium, ProLong™ Gold Antifade (Invitrogen™) and imaged with Leica DMI6000 epifluorescent microscope using oil immersion 63×/NA 1.4 objective. The quantification for total protein levels in neurons was done using ImageJ (version 1.53c), and imaging parameters were matched for exposure, gain, and offset.
(§3) The various compounds used for treatments and their stock concentrations in Table 4.

Series [2] deals with PheRSα/β. Nature of the series: PheRSα/β protein levels in cortical neurons (Western blot). Particulars: for PheRSβ levels: compound alone. The class given is cell-based, rat. How it is done:
as §1, §2, §3

Series [3] deals with rat cortical neurons. Nature of the series: MTT cell viability assay. Particulars: for effect on cis-RSV-mediated neuroprotective effects: combination with cis-RSV, NMDA toxicity; for neurotoxicity (viability): D-amino acid alone; for effect on trans-RSV-mediated neurotoxicity: combination with trans-RSV.
Description: (§4) Rat cortical neurons (DIV9-11) were exposed to different treatments (NMDA, ETO, H2O2, MPP+) after seeding 20,000 cells/well in 96-well plates. Cell viability was then assessed at 48 hr after the initial exposure to NMDA. 3-[4,5-dimethylthiazole-2-yl]-2,5-diphenyltetrazolium bromide (MTT) assays were used to assess change in cell viability. […] Cultured rat cortical neurons were incubated with MTT (0.5 mg/mL). In the MTT assay, after 2 hr incubation, the insoluble purple product formazan resulting from the reduction of MTT by NAD (P) H-dependent oxidoreductases present in cells with viable mitochondria was solubilized in dimethyl sulfoxide at room temperature, under agitation, and protected from light. The percentage of MTT reduced as measured by the difference between the absorbances at 570 nm read in a spectrophotometer (SpectraMax® 190R Molecular Devices, UK).
Series [4] deals with histone H3-Ser10-ADP-ribosylation. Put plainly: Histone H3 serine-ADP-ribosylation immunoblot in cortical neurons. The class given is cell-based, rat. Particulars: for histone serine-ADP-ribosylation: picomolar concentration (5-50 pM); for histone H3 serine-ADP-ribosylation: compound alone. How it is done:
FIG. 5B presents representative immunoblots and quantification of histone H3-Ser10-ADP-ribosylation levels in cortical neurons (DIV9) using anti-H3-Ser10-ADPR antibody after treatment with D-tyrosine (2.5 and 5 mM).
as §2

Series [5] relates to rat cortical neurons.
Description: as §4
Series [6] relates to cleaved caspase-3. Nature of the series: Cleaved caspase-3 immunoblot. The class given is cell-based, rat. Particulars: compound alone; trans-RSV at high concentration. The method, then:
FIG. 17E presents immunoblots showing the levels of cleaved caspase-3 in rat cortical neurons (DIV 9/10) after the treatment with D-Tyr (2 mM) for 16 hr.

The test system of series [7] is monosomes. Put plainly: Monosome formation in cortical neurons. The class given is cell-based, rat.
In series [8] the test system is neuronal chromatin. Put plainly: Chromatin fraction immunoblots of cortical neurons. The class given is cell-based, rat. As to conditions: picomolar concentration. The method, then:
as §2

Series [9] has as its system HPF1. Nature of the series: HPF1 levels immunoblot in cortical neurons. The class given is cell-based, rat. As to conditions: compound alone. How it is done: FIG. 5A presents immunoblots showing the protein levels of HPF1 in rat cortical neurons (DIV9-10) after treatment with Tyr ([…]) for up to 8 hr.
as §2

For series [10], the system named is eEF2. Nature of the series: eEF2 phosphorylation (p-eEF2) Western blot in cortical neurons. The class given is cell-based, rat. Particulars: compound alone. How it is done: as §1, §2
[11] abbreviates: compound alone, rat cortical neurons.

The results in this text go back to patent publication US20250241878A1, “TYROSINE AND RESVERATROL DERIVATIVES AS NOVEL MODULATORS OF CELLULAR SERINE ADP-RIBOSYLATION” (UNIVERSITY OF SOUTH CAROLINA, priority 2022, published 2025).

Entries after “also recorded” stand apart in the source; their conditions may differ. Like-named read-outs stand apart in the source and are kept apart here. Where a SMILES comes first, the peptide text is derived from it. The star is where a group is joined. Cbz = O=C(OCc1ccccc1)*

On to `NCCc1cc(O)c(O)cc1O` [Formula 6-OHDA, 6-hydroxydopamine], for which the TyrRS protein levels result in series [1] (setting [11]) is recorded as “decreased the levels of TyrRS”. In [2], the PheRSβ levels entry was “decreased the levels of TyrRS and PheRSβ”.

On to `C[C@@H]1C[C@@H]([C@H](O)CC2CC(=O)NC(=O)C2)C(=O)[C@@H](C)C1` [cycloheximide], for which, in [1] (combination with cis-RSV), the “effect on cis-RSV-mediated increase in TyrRS level” value is on record as “abrogated”. The TyrRS protein levels entry in series [1] (setting [11]) is given as “decreased TyrRS levels”.

Take `CN(C)Cc1ccc(-c2nc3cccc4c3n2CCNC4=O)cc1` [AG-14361]: the “effect on cis-RSV-mediated neuroprotective effects” value in series [3] is on record as “did not affect cis-RSV-mediated neuroprotective effects”.

Take `C[n+]1ccc(-c2ccccc2)cc1` [MPP+, 1-methyl-4-phenylpyridinium]: the “levels of neuronal TyrRS” value in series [1] was “decreased the levels of neuronal TyrRS”.

“amyloid beta 40: amyloid beta 40 peptide at picomolar concentration”: the “histone serine-ADP-ribosylation” value in series [4] is “activation of histone serine-ADP-ribosylation”. The “neuronal TyrRS levels” value in series [1] is “stimulation of neuronal TyrRS protein levels”.

With `CO/C1=C\C(C)=C\[C@@H](C)[C@@H](O)[C@@H](C)C/C(C)=C/C=C/[C@H](OC)[C@@H]([C@@H](C)[C@@H](O)[C@H](C)[C@@]2(O)C[C@@H](O)[C@H](C)[C@@H](C(C)C)O2)OC1=O` [bafilomycin], the TyrRS protein levels result in series [1] (setting [11]) is on record as “increased the levels of TyrRS”.

For `N[C@@H](Cc1ccccc1)C(=O)O` [phenylalanine, L-phenylalanine], the TyrRS protein levels entry in [1] (setting [11]) was “decreased the levels of TyrRS”. The PheRSβ levels entry in series [2] is “decreased the levels of TyrRS and PheRSβ”.

As for `N[C@H](Cc1ccccc1)C(=O)O` [D-Phe], the “neurotoxicity (viability)” value in [3] was “had no significant effects”.

As for `O=C(c1cc(Cc2n[nH]c(=O)c3ccccc23)ccc1F)N1CCN(C(=O)C2CC2)CC1` [olaparib], in [3], the “effect on cis-RSV-mediated neuroprotective effects” value was “mitigated the neuroprotective effects of cis-RSV” and the “effect on trans-RSV-mediated neurotoxicity” value was “did not affect trans-RSV-mediated neurotoxicity”.

For `CC(C)C[C@@H](C=O)NC(=O)[C@H](CC(C)C)NC(=O)[C@H](CC(C)C)NC(=O)OCc1ccccc1` [MG132] (Cbz-Leu-Leu-Leu-aldehyde), in [1] (setting [11]), the TyrRS protein levels result is on record as “increased the levels of TyrRS”.

For the molecule `N[C@H](Cc1c[nH]c2ccccc12)C(=O)O` [D-Trp], in [5], the “neurotoxicity (viability)” value is on record as “had no significant effects”.

With `NCCc1ccc(O)c(O)c1` [DA, dopamine], the “histone H3 serine-ADP-ribosylation” value in series [4] is reported as “stimulated histone H3 serine-ADP-ribosylation”. Besides, the TyrRS protein levels entry in series [1] was “increased the protein levels of TyrRS”. Also, the “effect on trans-RSV-mediated neurotoxicity” value in series [3] is recorded as “protected against neurotoxic effects of trans-RSV”.

For the molecule `CN[C@H](CC(=O)O)C(=O)O` [NMDA, N-Methyl-D-aspartate], in [1], the “levels of neuronal TyrRS” value is recorded as “decreased the levels of neuronal TyrRS”.

Regarding `Cc1c(O)cccc1C(=O)N[C@@H](CSc1ccccc1)[C@H](O)CN1C[C@H]2CCCC[C@H]2C[C@H]1C(=O)NC(C)(C)C` [nelfinavir], the TyrRS protein levels entry in series [1] (setting [11]) is listed as “depleted neuronal TyrRS”.

Regarding `N[C@H](Cc1ccc(O)cc1)C(=O)O` [D-Tyr, D-tyrosine], the “histone H3 serine-ADP-ribosylation” value in [4] is “potent inhibitor of TyrRS/PARP1/HPF1-dependent serine-ADP-ribosylation and DNA repair”. The “levels of cleaved caspase-3” value in series [6] is on record as “increased the levels of cleaved caspase-3”. Moreover, the “neurotoxicity (viability)” value in [3] is on record as “induced neurotoxicity”.

For the molecule `Cn1ncnc1[C@H]1c2n[nH]c(=O)c3cc(F)cc(c23)N[C@@H]1c1ccc(F)cc1` [talazoparib], the “effect on amyloid beta 42-induced monosome formation” value in series [7] (combination with amyloid beta 42 (10 picomolar)) is “lost”.

“amyloid beta 42: amyloid beta 42 peptide at physiological picomolar concentration”: the “histone serine-ADP-ribosylation” value in [4] was “activation of histone serine-ADP-ribosylation; also recorded: endogenous stimulator”. Further, in [1], the “neuronal TyrRS levels” value is recorded as “stimulation of neuronal TyrRS protein levels; also recorded: endogenous stimulator”. Moreover, the “chromatin trapping of auto-PARylated PARP1 with Rad52, DNA polymerase beta, ligase III, TyrRS” value in series [8] is reported as “trapping of auto-PARylated PARP1 along with Rad52, DNA polymerase beta, ligase III, TyrRS onto the chromatin”. Moreover, the monosome formation result in series [7] (picomolar amyloid beta 42 (5-50 pM; 10 picomolar in FIG. 20A)) is “endogenous stimulator of monosome formation”.

As for `N[C@@H](Cc1ccc(O)c(O)c1)C(=O)O` [L-DOPA, 3,4-dihydroxy-L-phenylalanine], in series [1] (setting [11]), the TyrRS protein levels entry is given as “decreased the levels of TyrRS”. Besides, the PheRSβ levels entry in series [2] is “decreased the levels of TyrRS and PheRSβ”.

In the case of `O=C(COc1ccc(Cl)cc1)NC1CCC(NC(=O)COc2ccc(Cl)cc2)CC1` (stereo not shown) [ISRIB], the “histone H3 serine-ADP-ribosylation” value in series [4] is “induction of histone H3 serine-ADP-ribosylation”. In series [1] (ISRIB 5-50 nM), the TyrRS protein levels result was “increased the protein levels of TyrRS”. Besides, the “effect on trans-RSV mediated depletion of TyrRS” value in [1] (combination with trans-RSV) was “rescued trans-RSV mediated depletion of TyrRS”. Also, in [1] (higher doses of ISRIB (250-500 nM)), the TyrRS levels result is listed as “decreased TyrRS levels”. Further, the PheRSβ protein levels entry in series [2] (ISRIB 5-50 nM) was “increased the protein levels of TyrRS and PheRSβ”. For the same molecule, in [9], the HPF1 levels entry is on record as “increased HPF1 levels”. Also, the “effect on trans-RSV-mediated neurotoxicity” value in [3] was “protected against neurotoxic effects of trans-RSV”. In series [10], the “eEF2 phosphorylation (p-eEF2)” value is given as “stimulated the dephosphorylation of eEF2”.

Consider `CCn1c(=O)c2cc(C(N)=O)c(N)nc2n(C2CC2)c1=O` [eEF2K inhibitor], for which the “effect on trans-RSV-mediated neurotoxicity” value in series [3] is given as “protected against neurotoxic effects of trans-RSV”.

B1: BDNF: brain-derived neurotrophic factor (protein, UniProt P23560 19-247, looked up)
Neurotrophic factor BDNF …: APMKEANIRGQGGLAYPGVRTHGTLESVNGPKAGSRGLTSLADTFEHVIEELLDEDQKVRPNEENNKDADLYTSRVMLSSQVPLEPPLLFLLEEYKNYLDAANMSMRVRRHSDPARRGELSVCDSISEWVTAADKKTAVDMSGGTVTVLEKVPVSKGQLKQYFYETKCNPMGYTKEGCRGIDKRHWNSQCRTTQSYVRALTMDSKKRIGWRFIRIDTSCVCTLTIKRGR
In the case of B1, the “histone H3 serine-ADP-ribosylation” value in series [4] is recorded as “induction of histone H3 serine-ADP-ribosylation”. In addition, the TyrRS protein levels entry in series [1] (setting [11]) is “stimulates the de novo synthesis of neuronal TyrRS”. Also, the HPF1 levels result in series [9] is “increased HPF1 levels”.
